# Laboratory results reported in patent publication US7932262B2 (Novartis AG, priority 2006, dated 2011).
# Legend:
# [1] = system: PC3MM cells; assay: Cell Proliferation Assay (Cell Titer Glo), PC3MM; assay type: cell-based; details: cell proliferation, PC3MM cells; read-out: CPEC50 PC3MM
# Summary of the method: (§1)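 Following a 3-day compound exposure (37° C., 5% CO2) of A2780 or PC3MM cells plated at 1000 per well, viability was measured by Cell Titer Glo luminescence in fresh medium, read 10 min after reagent addition.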
# [2] = system: A2780 cells; assay: Cell Proliferation Assay (Cell Titer Glo), A2780; assay type: cell-based; details: Homo sapiens; cell proliferation, A2780 cells; read-out: CPEC50 A2780
# Summary of the method: as §1
# [3] = molecular target: T1, PDK1 kinase (Homo sapiens, UniProt O15530); assay: PDK1 Kinase Alpha Screen Assay; assay type: biochemical; details: PDK1 Kinase Alpha Screen Assay; read-out: PDK1 IC50
# T1 sequence (O15530 1-556): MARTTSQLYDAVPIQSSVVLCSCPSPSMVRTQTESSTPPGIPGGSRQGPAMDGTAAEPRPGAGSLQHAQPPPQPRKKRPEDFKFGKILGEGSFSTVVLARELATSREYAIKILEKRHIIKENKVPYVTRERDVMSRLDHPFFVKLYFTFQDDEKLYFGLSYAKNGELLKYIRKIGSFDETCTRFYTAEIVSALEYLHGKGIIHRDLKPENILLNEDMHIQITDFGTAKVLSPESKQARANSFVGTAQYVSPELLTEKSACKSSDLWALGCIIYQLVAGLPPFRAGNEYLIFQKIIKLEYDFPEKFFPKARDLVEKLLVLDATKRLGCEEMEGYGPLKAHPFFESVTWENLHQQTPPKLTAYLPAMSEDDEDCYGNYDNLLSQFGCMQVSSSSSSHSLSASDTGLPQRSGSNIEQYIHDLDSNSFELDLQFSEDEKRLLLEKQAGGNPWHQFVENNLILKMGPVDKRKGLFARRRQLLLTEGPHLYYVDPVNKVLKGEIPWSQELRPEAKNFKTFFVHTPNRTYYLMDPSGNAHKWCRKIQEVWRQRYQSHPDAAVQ
# Summary of the method: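 Kinase inhibition measured as loss of AlphaScreen signal from antibody recognition of phosphorylated biotin-PDK1-4 peptide. Reactions contain 10 uM ATP and 50 nM peptide, run 3-18 hours before EDTA quench and overnight bead development at room temperature.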
Compound,EC50 [1] [µM],EC50 [2] [µM],IC50 [3] [µM]
"Nc1ccc(-c2ccc3cnc(Nc4ccc(S(N)(=O)=O)cc4)nc3c2)cn1 [Compound 789, 4-(7-(6-aminopyridin-3-yl)quinazolin-2-ylamino)benzenesulfonamide]",< 5,< 5,< 5
"NC(=O)c1ccc(-c2ccc3cnc(Nc4ccc(S(N)(=O)=O)cc4)nc3c2)cn1 [Compound 790, 5-(2-(4-sulfamoylphenylamino)quinazolin-7-yl)picolinamide]",< 5,5 to 10,< 5
"NS(=O)(=O)c1ccc(Nc2ncc3ccc(-c4cn[nH]c4)cc3n2)cc1 [Compound 792, 4-(7-(1H-pyrazol-4-yl)quinazolin-2-ylamino)benzenesulfonamide]",< 5,< 5,< 5
"NS(=O)(=O)c1ccc(Nc2ncc3ccc(-c4cccnc4)cc3n2)cc1 [Compound 793, 4-(7-(pyridin-3-yl)quinazolin-2-ylamlno)benzenesulfonamide]",< 5,< 5,< 5
"CNC(=O)c1ccc(Nc2ncc3cccc(OC4CCN(C(C)C)CC4)c3n2)cc1 [Compound 796, 4-(8-(1-isopropylpiperidin-4-yloxy)quinazolin-2-ylamino)-N-methylbenzamide]",< 5,< 5,< 5
"CN1CCN(C(=O)c2ccc3cnc(Nc4ccc(S(N)(=O)=O)cc4)nc3c2)CC1 [Compound 798, 4-(7-(4-methylpiperazine-1-carbonyl)quinazolin-2-ylamino)benzenesulfonamide]",10 to 25,5 to 10,10 to 25
"COc1cncc(-c2ccc3cnc(Nc4ccc(S(N)(=O)=O)cc4)nc3c2)c1 [Compound 801, 4-(7-(5-methoxypyridin-3-yl)quinazolin-2-ylamino)benzenesulfonamide]",< 5,< 5,< 5
"NS(=O)(=O)c1ccc(Nc2ncc3ccc(-c4ccc(C(=O)N5CCOCC5)cc4)cc3n2)cc1 [Compound 802, 4-(7-(4-(morpholine-4-carbonyl)phenyl)quinazolin-2-ylamino)benzenesulfonamide]",< 5,5 to 10,< 5
"NS(=O)(=O)c1ccc(Nc2ncc3cccc(C(=O)NC4CCCNC4)c3n2)cc1 (stereo not drawn) [Compound 803, N-(piperidin-3-yl)-2-(4-sulfamoylphenylamino)quinazoline-8-carboxamide]",< 5,5 to 10,< 5
"CN(C)[C@@H]1CCN(C(=O)c2cccc3cnc(Nc4ccc(S(N)(=O)=O)cc4)nc23)C1 [Compound 804, (R)-4-(8-(3-(dimethylamino)pyrrolidine-1-carbonyl)quinazolin-2-ylamino)benzenesulfonamide]",< 5,5 to 10,< 5
"NS(=O)(=O)c1ccc(Nc2ncc3cccc(C(=O)NC4CCNCC4)c3n2)cc1 [Compound 805, N-(piperidin-4-yl)-2-(4-sulfamoylphenylamino)quinazoline-8-carboxamide]",< 5,5 to 10,< 5
"CN(C)[C@H]1CCN(C(=O)c2cccc3cnc(Nc4ccc(S(N)(=O)=O)cc4)nc23)C1 [Compound 806, (S)-4-(8-(3-(dimethylamino)pyrrolidine-1-carbonyl)quinazolin-2-ylamino)benzenesulfonamide]",< 5,5 to 10,< 5
"NS(=O)(=O)c1ccc(Nc2ncc3cccc(C(=O)N[C@H]4CN5CCC4CC5)c3n2)cc1 [Compound 807, (R)-N-(quinuclidin-3-yl)-2-(4-sulfamoylphenylamino)quinazoline-8-carboxamide]",5 to 10,5 to 10,5 to 10
"NS(=O)(=O)c1ccc(Nc2ncc3cccc(C(=O)N4CCNC(=O)C4)c3n2)cc1 [Compound 808, 4-(8-(3-oxopiperazine-1-carbonyl)quinazolin-2-ylamino)benzenesulfonamide]",< 5,5 to 10,< 5
